The record followed here is patent US20240197729A1, “ALK-5 Inhibitors and Uses Thereof” (Sumitomo Pharma Oncology, Inc., priority 2021, published 2024).

Data set [1] relates to phospho-SMAD2 (S465/S467). Description: Phospho-SMAD2 assay in RDSR cells. To be noted: Homo sapiens, 0.5 h, 100 ng/ml TGF-β1, 30 minutes. The data set is classed as cell-based. The source says: TGF-β is a pleiotropic cytokine involved in extremely conserved pathways relevant to cell growth, differentiation, and development. TGF-β signaling is triggered when the activated TGF-β homodimer binds to the TGF-β receptor 2 (TGFbR2), which in turn leads to the recruitment and phosphorylation of TGF-β receptor 1 (TGFbR1). Activated TGFbR1 phosphorylates the signal transduction molecules SMAD2 and SMAD3, which then bind to the common mediator SMAD4 and translocate to the nucleus where they alter gene transcription. In this assay, phospho-SMAD2 (S465/S467), a direct phosphorylation substrate of TGFbR1, was used as a readout of TGF-β pathway activity. Vactosertib (a TGFbR1 inhibitor available from MedChem Express HY-19928) was included as a positive control.
The RD SMAD reporter (RDSR) cell line was generated by stably integrating the SMAD reporter plasmid (Promega, pGL4.48[luc2P/SBE/Hygro]) into the human rhabdomyosarcoma cell line RD (ATCC, CCL-136).
RDSR cells were seeded in DMEM (ATCC30-2002)+10% FBS in 96-well plate and allowed to grow overnight at 5% CO2 and 37° C. The next day, cells were pre-treated with Compound 04, Compound 01 or vactosertib at various concentrations, or with vehicle (DMSO), for one hour. Cells were then stimulated with recombinant human TGF-β1 (R&D Systems 7754-BH-005) at a final concentration of 100 ng/ml, in the presence of Compound 04, Compound 01, vactosertib, or DMSO for thirty minutes. A no-TGF-β1 stimulation condition was included for baseline phospho-SMAD2 level measurement.
The phospho-SMAD2 levels were determined using the Bio-Plex Pro™ Phospho-Smad2 (Ser465/Ser467) bead/antibody set (BioRad 171V50019M). Phospho-SMAD2 levels were normalized to ß-tubulin (MILLIPLEX MAP ß-Tubulin Total Magnetic Bead MAPmate™, Millipore 46-713MAG) or GAPDH (MILLIPLEX MAP GAPDH Total Magnetic Bead MAPmate™, Millipore 46-667MAG) levels from each sample. All samples were analyzed in a multiplex fashion with the Bio-Plex Pro Cell Signaling Reagent Kit (BioRad 171304006M). […] Bead suspension was analyzed using the Luminex system (MAGPIX). […]

The target in data set [2] is T1, ALK5 (Homo sapiens, UniProt P36897).
T1 sequence (P36897 34-503): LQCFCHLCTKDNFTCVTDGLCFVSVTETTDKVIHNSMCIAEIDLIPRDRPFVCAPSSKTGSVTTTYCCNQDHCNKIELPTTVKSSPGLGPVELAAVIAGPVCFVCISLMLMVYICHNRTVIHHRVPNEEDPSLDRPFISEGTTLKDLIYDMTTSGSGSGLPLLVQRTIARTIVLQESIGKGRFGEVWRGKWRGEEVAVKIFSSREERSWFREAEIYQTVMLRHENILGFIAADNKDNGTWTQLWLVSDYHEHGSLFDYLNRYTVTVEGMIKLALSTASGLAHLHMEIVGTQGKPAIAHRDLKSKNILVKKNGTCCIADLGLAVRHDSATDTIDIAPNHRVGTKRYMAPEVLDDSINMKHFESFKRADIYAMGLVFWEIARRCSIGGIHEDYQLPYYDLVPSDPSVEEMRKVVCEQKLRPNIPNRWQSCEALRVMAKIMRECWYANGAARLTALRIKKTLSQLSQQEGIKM
Description: LanthaScreen Eu Kinase Binding Assay, ALK5. To be noted: 10-point titration, read-out: Kinase Inhibition: ALK5 IC50 (Lantha). The protocol:
Selected compounds of the present disclosure were assayed for inhibitory activity against ALK5 and ALK2. Activity determinations and selectivity were conducted by Thermo Fisher Scientific SelectScreen™ Biochemical Kinase Profiling Service using their LanthaScreen™ Eu Kinase Binding Assay Screening.
Binding of an Alexa Fluor™ conjugate or “tracer” to a kinase is detected by addition of a Eu-labeled anti-tag antibody. Binding of the tracer and antibody to a kinase results in a high degree of FRET, whereas displacement of the tracer with a kinase inhibitor results in a loss of FRET. This assay is carried out by mixing the compound tested with the reagents and reading; no development step is required.
Life Technologies' Kinase Tracers are based on ATP-competitive kinase inhibitors, making them suitable for detection of any compounds that bind to the ATP site. Inhibitors that bind the ATP site include both Type I kinase inhibitors, which bind solely to the ATP site, and Type II inhibitors (e.g., Gleevec®/Imatinib, Sorafenib, BIRB-796), which bind to both the ATP site and a second site often referred to as the allosteric site.
The test compounds were screened in 1% DMSO (final) in the well. For 10-point titrations, 3-fold serial dilutions were conducted from the starting concentration (see Table 2 below).
All Kinase/Antibody Mixtures were diluted to a 2× working concentration in the specified kinase buffer. The 4× AlexaFluor labeled Tracer was prepared in Kinase Buffer.
• Bar-coded, low volume, white, 384-well plate (Greiner Cat. #784207) • 1. 160 nL—100× Test Compound in 100% DMSO • 2. 3.84 μL—Kinase Buffer • 3. 8.0 μL—2× Kinase/Antibody Mixture • 4. 4.0 μL—4× Tracer • 5. 30-second plate shake • 6. 60-minute incubation at room temperature • 7. Read on fluorescence plate reader and analysis of the data
The following controls were made for each individual kinase and were located on the same plate as the kinase:
100% Displacement Control: The minimum Emission Ratio was established by the 100% Displacement Control wells, which contained the highest concentration of the known inhibitor used in that assay.
Known Inhibitor: A known inhibitor control standard curve, 10-point titration, was run for each individual kinase on the same plate as the kinase to ensure the inhibitor was displaced within an expected IC50 range previously determined.
The following equations were used for each set of data points: […]
Data generated were plotted using the graphing software XLfit from IDBS. The dose response curve was curve fit to model number 205.

Data set [3] relates to TGF-β1-mediated αSMA expression. Description: Fibroblast to myofibroblast transformation (FMT) assay. As to conditions: for IC50: Homo sapiens, Fibroblast; for inhibition of TGF-β1-mediated αSMA expression: all three IPF donors; for loss of nuclei: donor IPF03, highest test concentration (10 μM); for Potentially toxic concentration: lowest concentration with >25% loss of nuclei; for modulation of the number of nuclei: donors IPF06 and IPF08.
Description: To test the ability of selected compounds to inhibit the TGF-β1-dependent transition of fibroblasts to myofibroblasts in a relevant disease model of IPF, an FMT assay was performed using lung fibroblasts from IPF patients. In this assay, the transition of fibroblasts to myofibroblasts is determined by the expression of the biomarker alpha smooth muscle actin (α-SMA).
Primary human bronchial fibroblasts derived from IPF patients were seeded on day zero and the media was refreshed on day two. On day five, selected compounds or controls were added at an eight-point concentration response curve starting at 10 μM (semi-log dilutions). Each drug concentration condition was evaluated in biological duplicates. […] Seventy-two hours following TGF-beta addition, the cells were fixed with formaldehyde. High content imaging evaluating cell number using the nuclear stain DAPI as well as the expression of a-SMA was performed. The following controls were run alongside the selected compounds: vactosertib and the approved IPF drug nintedanib (at an eight-point, semi-log curve with 10 μM starting concentration). As a negative control 0.1% DMSO was also used, matching the DMSO concentration in treated wells. The following calculations were used to determine cell number as well as percent inhibition (PIN) of alpha SMA expression:
• Segmentation and quantification of αSMA immunoreactivity by an HCA algorithm, with density×area (D×A) output • Data normalization of raw αSMA (D×A) to percentage inhibition (PIN) values, on a plate-to-plate basis
• DAPI fluorescence applied for HCA-based quantification of the number of imaged cells, on a plate-to-plate basis
[formula] • μn is the average numbers of nuclei of the vehicle control (TGF-β1+0.1% DMSO) • Xi is the compound number of nuclei

[4] abbreviates: read-out: Average IC50 (nM), average of donors IPF03, IPF06, IPF08.
[5] abbreviates: read-out: IC50 αSMA, donor IPF03.
The mark [6] stands for this setting: read-out: IC50 αSMA, donor IPF06.
The mark [7] stands for this setting: read-out: IC50 αSMA, donor IPF08.
Setting [8] is: read-out: pIC50 αSMA, donor IPF03 (converted).
[9] abbreviates: read-out: pIC50 αSMA, donor IPF06 (converted).
The mark [10] stands for this setting: read-out: pIC50 αSMA, donor IPF08 (converted).

SMILES strings stand for the structures. Like-named read-outs stand apart in the source and are kept apart here.

In the case of `Cc1nn(CC(F)(F)F)cc1Nc1cc(Nc2cnnc3c(C)cccc23)ccn1` [Compound 01, N2-[3-methyl-1-(2,2,2-trifluoroethyl)-1H-pyrazol-4-yl]-N4-(8-methylcinnolin-4-yl)pyridine-2,4-diamine], the IC50 is less than 200 nM in data set [1]; not above 2 nM in data set [2]; 83.3 nM in data set [3] (setting [4]); 100 nM in data set [3] (setting [5]); 100 nM in data set [3] (setting [6]); 50 nM in data set [3] (setting [7]). For the same molecule, the IC50 in data set [3] (setting [8]) was 100 nM; in data set [3] (setting [9]), 100 nM; in data set [3] (setting [10]), 50.1 nM. In data set [3], the “inhibition of TGF-β1-mediated αSMA expression” value is recorded as “full concentration-dependent inhibition”. For the same molecule, the “Max PIN (%)” value worked out at 106% in data set [3] (donor IPF03), 107% in data set [3] (donor IPF06) and 101% in data set [3] (donor IPF08). Moreover, in data set [3], the loss of nuclei is more than 25%. In addition, the Potentially toxic concentration in data set [3] (donor IPF03) worked out at 5.0. For the same molecule, the “modulation of the number of nuclei” value in data set [3] is listed as “No modulation of the number of nuclei was observed”.
As to `Clc1cccc2c(Nc3ccnc(Nc4cccc(N5CCOCC5)c4)c3)cnnc12` [Compound 04, N4-(8-chlorocinnolin-4-yl)-N2-[3-(morpholin-4-yl)phenyl]pyridine-2,4-diamine], the IC50 in data set [1] is less than 200 nM; in data set [2], 2 to 5 nM; in data set [3] (setting [4]), 40 nM; in data set [3] (setting [5]), 40 nM; in data set [3] (setting [6]) it was 50 nM; in data set [3] (setting [7]) it was 30 nM. The IC50 in data set [3] (setting [8]) was 39.8 nM; in data set [3] (setting [9]) it was 50.1 nM; in data set [3] (setting [10]) it was 31.6 nM. In addition, in data set [3], the “inhibition of TGF-β1-mediated αSMA expression” value is “full concentration-dependent inhibition”. For the same molecule, the “Max PIN (%)” value worked out at 107% in data set [3] (donor IPF03), 106% in data set [3] (donor IPF06) and 100% in data set [3] (donor IPF08). The molecule further registered a loss of nuclei in data set [3] of less than 25%. Besides, the “modulation of the number of nuclei” value in data set [3] is recorded as “No modulation of the number of nuclei was observed”.
As to `Cc1cccc2c(Nc3ccnc(Nc4ccc(N5CCOCC5)cc4)c3)cnnc12` [Compound 05, N4-(8-methylcinnolin-4-yl)-N2-[4-(morpholin-4-yl)phenyl]pyridine-2,4-diamine], the IC50 was 2 to 5 nM in data set [2]; 50 nM in data set [3] (setting [4]); 60 nM in data set [3] (setting [5]); 50 nM in data set [3] (setting [6]); 40 nM in data set [3] (setting [7]); 63.1 nM in data set [3] (setting [8]). For the same molecule, the IC50 is 50.1 nM in data set [3] (setting [9]) and 39.8 nM in data set [3] (setting [10]). The “Max PIN (%)” value in data set [3] (donor IPF03) is given as 106%; in data set [3] (donor IPF06), 106%; in data set [3] (donor IPF08), 101%. In addition, the Potentially toxic concentration in data set [3] (donor IPF03) stood at 5.0.
Take `Cc1cccc(-c2[nH]c(CNc3ccccc3F)nc2-c2ccc3ncnn3c2)n1` [Vactosertib, vactosertib, reference compound]: the IC50 in data set [1] is less than 200 nM; in data set [3] (setting [4]), 38.3 nM; in data set [3] (setting [5]) it was 50 nM; in data set [3] (setting [6]), 40 nM; in data set [3] (setting [7]), 25 nM; in data set [3] (setting [8]), 50.1 nM. For the same molecule, the IC50 is 39.8 nM in data set [3] (setting [9]) and 25.1 nM in data set [3] (setting [10]). For the same molecule, the “Max PIN (%)” value in data set [3] (donor IPF03) worked out at 105%; in data set [3] (donor IPF06) it was 104%; in data set [3] (donor IPF08), 102%.
